Results taken from ChEMBL document CHEMBL1152712, “5-Hydroxyindole-type alkaloids, as Candida albicans isocitrate lyase inhibitors, from the tropical sponge Hyrtios sp” (Bioorg Med Chem Lett, 2009).
Values after ≈ are worked out from the molar mass of the structure shown.

What was measured:
Candida albicans = assay: Antimicrobial activity against Candida albicans ATCC 10231; format: functional
Isocitrate lyase = Isocitrate lyase (Candida albicans, UniProt Q9P8Q7); assay: Inhibition of Candida albicans isocitrate lyase
Isocitrate lyase, sequence (Q9P8Q7 whole entry): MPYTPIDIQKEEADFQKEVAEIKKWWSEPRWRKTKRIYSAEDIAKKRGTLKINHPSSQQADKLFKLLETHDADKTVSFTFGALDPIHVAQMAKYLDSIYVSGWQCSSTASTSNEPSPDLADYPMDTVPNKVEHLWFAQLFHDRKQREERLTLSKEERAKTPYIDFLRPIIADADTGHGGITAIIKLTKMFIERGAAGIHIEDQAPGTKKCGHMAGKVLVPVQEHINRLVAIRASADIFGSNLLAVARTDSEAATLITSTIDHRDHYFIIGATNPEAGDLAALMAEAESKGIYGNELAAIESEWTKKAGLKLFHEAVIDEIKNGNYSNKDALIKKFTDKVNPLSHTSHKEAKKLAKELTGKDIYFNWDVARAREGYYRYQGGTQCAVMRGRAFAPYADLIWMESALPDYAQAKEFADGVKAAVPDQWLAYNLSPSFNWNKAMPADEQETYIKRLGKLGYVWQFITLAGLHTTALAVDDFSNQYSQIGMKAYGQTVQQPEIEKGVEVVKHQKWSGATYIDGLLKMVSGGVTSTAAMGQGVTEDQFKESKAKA

## O=C1NCCc2c1[nH]c1ccc(O)cc21
Candida albicans
  MIC: > 989 µM
Isocitrate lyase
  IC50: > 989 µM

## C[C@@H]1[C@H](O)[C@@H](C)/C=C/C=C/C=C/C=C/C=C/C=C/C=C/[C@H](O[C@@H]2O[C@H](C)[C@@H](O)[C@H](N)[C@@H]2O)C[C@@H]2O[C@](O)(C[C@@H](O)C[C@@H](O)[C@H](O)CC[C@@H](O)C[C@@H](O)CC(=O)O[C@H]1C)C[C@H](O)[C@H]2C(=O)O [AMPHOTERICIN B]
Candida albicans
  MIC: 1.7 µM (≈ 1.57 µg/mL)

## O=C(C(=O)c1c[nH]c2ccc(O)cc12)c1c[nH]c2ccc(O)cc12 [HYRTIOSIN B]
Candida albicans
  MIC: > 624 µM
Isocitrate lyase
  IC50: 89 µM

## O=C(CO)c1c[nH]c2ccc(O)cc12 [HYRTIOSIN A]
Candida albicans
  MIC: > 1050 µM
Isocitrate lyase
  IC50: 318 µM

## O=Cc1c[nH]c2ccc(O)cc12
Candida albicans
  MIC: > 1020 µM
Isocitrate lyase
  IC50: 247 µM

## O=C(O)CC[N+](=O)[O-]
Candida albicans
  MIC: > 1690 µM

## COC(=O)c1c[nH]c2ccc(O)cc12
Candida albicans
  MIC: > 1050 µM
Isocitrate lyase
  IC50: 800 µM

## NCCc1c[nH]c2ccc(O)cc12 [SEROTONIN]
Candida albicans
  MIC: > 1130 µM
Isocitrate lyase
  IC50: 301 µM

## O=C(O)C1=NCCc2c1[nH]c1ccc(O)cc21
Candida albicans
  MIC: > 869 µM
Isocitrate lyase
  IC50: 380 µM
